Five molecules from ChEMBL document CHEMBL3421530, “Azepinone-Containing Tetrapeptide Analogues of Melanotropin Lead to Selective hMC4R Agonists and hMC5R Antagonist” (ACS Med Chem Lett, 2015) can be followed below.

Some results are limits rather than exact numbers.

Data set [1] has as its target T1, Melanocortin receptor 3 (Homo sapiens, UniProt P41968). Briefly: Displacement of [125I]-NDP-alpha-MSH from human MC3 receptor expressed in HEK293 cells by gamma counting analysis. It counts as cell-based.
Data set [2] addresses T2, Melanocyte-stimulating hormone receptor (Homo sapiens, UniProt Q01726). The data set is described as follows: Displacement of [125I]-NDP-alpha-MSH from human MC1 receptor expressed in HEK293 cells by gamma counting analysis. Type of data set: cell-based.
Target sequence in this assay (Q01726 whole entry): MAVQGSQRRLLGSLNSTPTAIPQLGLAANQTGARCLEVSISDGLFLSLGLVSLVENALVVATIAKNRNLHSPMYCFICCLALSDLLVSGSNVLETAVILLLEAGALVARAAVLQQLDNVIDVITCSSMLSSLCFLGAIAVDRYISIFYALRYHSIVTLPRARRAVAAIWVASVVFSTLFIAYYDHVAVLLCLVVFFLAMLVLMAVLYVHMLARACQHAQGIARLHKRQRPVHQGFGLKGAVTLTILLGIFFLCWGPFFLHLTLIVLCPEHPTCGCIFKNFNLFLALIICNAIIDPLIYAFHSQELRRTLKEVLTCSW
For data set [3], the target named is T2, Melanocyte-stimulating hormone receptor. Briefly: Activity at human MC1 receptor expressed in HEK293 cells assessed as cAMP accumulation at 10 uM by luminescence counter relative to MT-II. It counts as functional, cell-based.
Target sequence in this assay (Q01726 whole entry, looked up): as the sequence (Q01726 whole entry) above
The target in data set [4] is T3, Melanocortin receptor 5 (Homo sapiens, UniProt P33032). The data set is described as follows: Displacement of [125I]-NDP-alpha-MSH from human MC5 receptor expressed in HEK293 cells by gamma counting analysis. Type of data set: cell-based.
Data set [5] addresses T4, Melanocortin receptor 4 (Homo sapiens, UniProt P32245). Briefly: Displacement of [125I]-NDP-alpha-MSH from human MC4 receptor expressed in HEK293 cells by gamma counting analysis. Type of data set: cell-based.
Data set [6] deals with T4, Melanocortin receptor 4. The data set is described as follows: Displacement of [125I]-NDP-alpha-MSH from human MC4 receptor expressed in HEK293 cells at 10 uM by gamma counting analysis. Type of data set: cell-based.
Data set [7] addresses T1, Melanocortin receptor 3. Briefly: Displacement of [125I]-NDP-alpha-MSH from human MC3 receptor expressed in HEK293 cells at 10 uM by gamma counting analysis. It counts as cell-based.
Data set [8] is described as follows: Retention time of the compound. It counts as physicochemical.
Data set [9] deals with T3, Melanocortin receptor 5. The data set is described as follows: Antagonist activity at human MC5 receptor expressed in HEK293 cells assessed as cAMP accumulation at 10 uM by luminescence counter relative to MT-II. Type of data set: functional, cell-based. On the set-up: scale not given: the % may be the effect or the level left.
The target of data set [10] is T4, Melanocortin receptor 4. Briefly: Agonist activity at human MC4 receptor expressed in HEK293 cells assessed as cAMP accumulation by luminescence counter. It counts as functional, cell-based.
Data set [11] addresses T4, Melanocortin receptor 4. Briefly: Agonist activity at human MC4 receptor expressed in HEK293 cells assessed as cAMP accumulation at 10 uM by luminescence counter relative to MT-II. Type of data set: functional, cell-based.
Data set [12] has as its target T3, Melanocortin receptor 5. The data set is described as follows: Antagonist activity at human MC5 receptor expressed in HEK293 cells assessed as cAMP accumulation by luminescence counter. Type of data set: functional, cell-based.
Data set [13] deals with T1, Melanocortin receptor 3. The data set is described as follows: Activity at human MC3 receptor expressed in HEK293 cells assessed as cAMP accumulation at 10 uM by luminescence counter relative to MT-II. It counts as functional, cell-based.
Data set [14] has as its target T2, Melanocyte-stimulating hormone receptor. The data set is described as follows: Displacement of [125I]-NDP-alpha-MSH from human MC1 receptor expressed in HEK293 cells at 10 uM by gamma counting analysis. Type of data set: cell-based.
Target sequence in this assay (Q01726 whole entry, looked up): as the sequence (Q01726 whole entry) above
Data set [15] has the same target. Briefly: Activity at human MC1 receptor expressed in HEK293 cells assessed as cAMP accumulation by luminescence counter. Type of data set: functional, cell-based.
Target sequence in this assay (Q01726 whole entry): as above
Data set [16] has as its target T3, Melanocortin receptor 5. Briefly: Displacement of [125I]-NDP-alpha-MSH from human MC5 receptor expressed in HEK293 cells at 10 uM by gamma counting analysis. It counts as cell-based.
Data set [17] addresses T1, Melanocortin receptor 3. The data set is described as follows: Activity at human MC3 receptor expressed in HEK293 cells assessed as cAMP accumulation by luminescence counter. Type of data set: functional, cell-based.

T4 sequence (P32245 whole entry): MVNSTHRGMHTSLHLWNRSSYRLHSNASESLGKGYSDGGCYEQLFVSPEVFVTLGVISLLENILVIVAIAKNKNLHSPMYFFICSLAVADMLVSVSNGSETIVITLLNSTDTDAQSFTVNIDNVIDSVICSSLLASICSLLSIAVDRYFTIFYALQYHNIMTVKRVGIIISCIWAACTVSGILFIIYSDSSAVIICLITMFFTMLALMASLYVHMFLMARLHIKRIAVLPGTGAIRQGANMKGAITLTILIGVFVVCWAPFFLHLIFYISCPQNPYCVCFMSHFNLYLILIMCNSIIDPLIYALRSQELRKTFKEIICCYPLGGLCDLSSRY
T1 sequence (P41968 whole entry): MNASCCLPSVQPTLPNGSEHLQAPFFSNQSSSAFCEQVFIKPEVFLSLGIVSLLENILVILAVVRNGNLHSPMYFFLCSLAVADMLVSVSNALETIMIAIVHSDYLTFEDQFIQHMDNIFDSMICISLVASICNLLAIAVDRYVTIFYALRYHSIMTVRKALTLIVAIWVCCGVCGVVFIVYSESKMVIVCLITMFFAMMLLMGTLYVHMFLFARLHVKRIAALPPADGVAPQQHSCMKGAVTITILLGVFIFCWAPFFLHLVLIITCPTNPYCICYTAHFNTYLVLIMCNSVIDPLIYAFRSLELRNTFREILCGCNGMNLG
T3 sequence (P33032 whole entry): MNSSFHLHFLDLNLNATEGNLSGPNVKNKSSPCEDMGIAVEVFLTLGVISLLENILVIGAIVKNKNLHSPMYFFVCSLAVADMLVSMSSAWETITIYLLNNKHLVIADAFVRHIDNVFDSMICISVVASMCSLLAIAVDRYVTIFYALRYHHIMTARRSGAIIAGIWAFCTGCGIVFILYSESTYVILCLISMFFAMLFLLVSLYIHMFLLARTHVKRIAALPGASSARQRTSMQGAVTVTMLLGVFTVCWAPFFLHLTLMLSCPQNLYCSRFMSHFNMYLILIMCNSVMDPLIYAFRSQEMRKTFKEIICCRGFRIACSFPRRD

Take `CC(=O)N[C@H]1Cc2c([nH]c3ccccc23)CN([C@H](Cc2ccc(F)cc2)C(=O)N[C@@H](CCCNC(=N)N)C(=O)N[C@@H](Cc2c[nH]c3ccccc23)C(N)=O)C1=O`: the IC50 at Melanocortin receptor 3 [1] (read-out: IC50) was determined as 5000 nM; in data set [2], 258 nM; on Melanocortin receptor 5 [4] it was 167 nM; at Melanocortin receptor 4 [5], 6.5 nM. The Activity in [3] came out at 50%; at Melanocortin receptor 5 [9], 50%; at Melanocortin receptor 4 [11] it was 100%; on Melanocortin receptor 3 [13] it was 0%. Also, the %max came out at 80% on Melanocortin receptor 4 [6], 50% on Melanocortin receptor 3 [7], 40% in [14] and 80% at Melanocortin receptor 5 [16]. The molecule further showed a Retention_time in data set [8] of 13.94 min. Also, the EC50 was 13 nM on Melanocortin receptor 4 [10], 4110 nM at Melanocortin receptor 5 [12] (read-out: EC50), 226 nM in data set [15] (read-out: EC50) and “Not Active” on Melanocortin receptor 3 [17] (hek293).
Take `CC(=O)N[C@H]1Cc2ccccc2CN([C@H](Cc2ccccc2)C(=O)N[C@@H](CCCNC(=N)N)C(=O)N[C@@H](Cc2c[nH]c3ccccc23)C(N)=O)C1=O`: the IC50 at Melanocortin receptor 3 [1] (read-out: IC50) was greater than 2000 nM; in [2], 594 nM; on Melanocortin receptor 5 [4], 37.3 nM; at Melanocortin receptor 4 [5] it was 220 nM. For the same molecule, the Activity was found to be 70% in data set [3], 0% at Melanocortin receptor 5 [9], 80% at Melanocortin receptor 4 [11] and 40% at Melanocortin receptor 3 [13]. The %max on Melanocortin receptor 4 [6] is 80%; on Melanocortin receptor 3 [7], 59%; in [14], 80%; at Melanocortin receptor 5 [16], 75%. For the same molecule, the Retention_time in [8] was found to be 13.35 min. Besides, the 50% effective concentration (EC50) was 227 nM on Melanocortin receptor 4 [10], “Not Active” at Melanocortin receptor 5 [12] (hek293), 1000 nM in [15] (read-out: EC50) and 59 nM at Melanocortin receptor 3 [17] (read-out: EC50).
With `CC(=O)N[C@H]1Cc2c([nH]c3ccccc23)CN([C@H](Cc2ccc(Br)cc2)C(=O)N[C@@H](CCCNC(=N)N)C(=O)N[C@@H](Cc2c[nH]c3ccccc23)C(N)=O)C1=O`, the IC50 on Melanocortin receptor 3 [1] (read-out: IC50) came to 100 nM; in [2], 300 nM; at Melanocortin receptor 5 [4] it was 70.3 nM; at Melanocortin receptor 4 [5], 200 nM. Further, the Activity amounted to 100% in data set [3], 0% at Melanocortin receptor 5 [9], 80% on Melanocortin receptor 4 [11] and 50% at Melanocortin receptor 3 [13]. In addition, the %max came out at 100% at Melanocortin receptor 4 [6], 100% on Melanocortin receptor 3 [7], 80% in data set [14] and 100% at Melanocortin receptor 5 [16]. This molecule had a Retention_time in data set [8] of 14.85 min. The concentration for a half-maximal effect (EC50) on Melanocortin receptor 4 [10] was 0.3 nM; at Melanocortin receptor 5 [12] (hek293), “Not Active”; in data set [15] (read-out: EC50) it was 700 nM; on Melanocortin receptor 3 [17] (read-out: EC50) it was 2440 nM.
For the molecule `CC(=O)N[C@H]1Cn2nncc2CN([C@H](Cc2ccccc2)C(=O)N[C@@H](CCCNC(=N)N)C(=O)N[C@@H](Cc2c[nH]c3ccccc23)C(N)=O)C1=O`, the IC50 turned out to be 1000 nM at Melanocortin receptor 3 [1] (read-out: IC50), 4540 nM in [2], 137 nM at Melanocortin receptor 5 [4] and 200 nM on Melanocortin receptor 4 [5]. The Activity in [3] came out at 100%; on Melanocortin receptor 5 [9], 0%; on Melanocortin receptor 4 [11], 80%; on Melanocortin receptor 3 [13], 20%. Besides, the %max at Melanocortin receptor 4 [6] came out at 80%; at Melanocortin receptor 3 [7] it was 55%; in data set [14] it was 60%; on Melanocortin receptor 5 [16] it was 70%. In data set [8], this molecule had a Retention_time of 10.43 min. The EC50 is 203 nM at Melanocortin receptor 4 [10], “Not Active” on Melanocortin receptor 5 [12] (hek293), 750 nM in [15] (read-out: EC50) and 55 nM at Melanocortin receptor 3 [17] (read-out: EC50).
For the molecule `CC(=O)N[C@H]1Cc2c([nH]c3ccccc23)CN([C@H](Cc2ccccc2)C(=O)N[C@@H](CCCNC(=N)N)C(=O)N[C@@H](Cc2c[nH]c3ccccc23)C(N)=O)C1=O`, the IC50 entry was “Not Active” at Melanocortin receptor 3 [1] (hek293), 1350 nM in [2], 636 nM at Melanocortin receptor 5 [4] and 447 nM at Melanocortin receptor 4 [5]. For the same molecule, the Activity is 0% in data set [3], 0% at Melanocortin receptor 5 [9], 51% at Melanocortin receptor 4 [11] and 20% at Melanocortin receptor 3 [13]. Also, the figures for the %max (at Melanocortin receptor 4 [6]; in data set [14]; at Melanocortin receptor 5 [16]) were 50%, 50% and 80%, respectively. The Retention_time in [8] worked out at 13.05 min. Further, the EC50 on Melanocortin receptor 4 [10] was 0.3 nM; at Melanocortin receptor 5 [12] (hek293) it was “Not Active”; in data set [15] (hek293), “Not Active”; at Melanocortin receptor 3 [17] (read-out: EC50), 52 nM.
